Experimental data as given in US10307357B2, “Prebiotic oral care compositions containing an alkyl glycoside” (COLGATE-PALMOLIVE COMPANY, priority 2013, dated 2019).

Assays:
Assay type in all cases: cell-based
Actinomyces naeslundii = assay: Phenotype microarray metabolic activity; conditions: control = 1
Procedure: (§1) The extent of metabolic activity of the tested bacteria in the presence of the above-mentioned glycosides after 24 hours and 48 hours was investigated through a high throughput phenotype microarray system (PM) for microbial cells (Biolog Inc.). Each PM can contain up to 95 different biochemical compounds (e.g. glycosides) that may act as substrates for bacteria as well as one negative control, not containing the substrates. Microarray plates were used in which the different wells of each plate were pre-loaded (by the manufacturer, Biolog Inc.) with different glycosides to be tested. Each bacterial species was tested using a separate microarray plate. Thus, a single bacterial species was tested with a variety of glycosides on each particular plate. The microarrays are based on redox technology, using cell respiration as a universal reporter. Active cell respiration results in the reduction of a tetrazolium dye and in the formation of a strong color—for example, when using the tetrazolium dye “Biolog Redox Dye Mix D”, the color changes from transparent/colorless to purple when the dye is reduced. The observation of this color change indicates which of the substrates improve the metabolic activity and health of the cells. Each bacterial species was collected from blood agar plates (incubated for 48 hours anaerobically at 37° C.) and transferred to an IF-0 Base inoculation fluid (Biolog Inc.), which is a nutritionally poor medium. The resulting cell suspension was adjusted to a transmittance of 42% (relative to the transmittance of the base inoculation fluid with no bacterial species present) at 492 nm using a BioRad SmartSpec 3000 Photometer (the adjustment being effected by adding either further inoculation fluid or further bacteria until the transmittance of 42% was achieved). A 1:5 dilution of this suspension was prepared by mixing 3 mL of the 42% transmittance cell suspension with […] of an inoculation fluid (which inoculation fluid was formed by mixing 11.6 mL sterile water, 62.5 mL IF-0 base inoculation fluid and 0.9 mL of the tetrazolium dye “Biolog Redox Dye mix D”), resulting in a final cell density which was equal to 85% transmittance using a BioRad SmartSpec 3000 Photometer. For each of the glycosides tested, the microarray plate (obtained from the supplier (Biolog Inc.) with glycosides already present in the relevant wells in powder form) was directly inoculated with 100 μL/well of this 85% transmittance cell suspension. All plates were incubated in an anaerobic atmosphere at 37° C. Color changes were measured spectrophotometrically at 492 nm (Thermo Scientific Multiskan Ascent) at 24 hrs and 48 hrs using the same plate at both time points. […] After 24 hrs and 48 hrs under continuous shaking in a Multiscan microplate reader, the optical density (OD) of the synthetic medium at 24 hours and 48 hours was measured (using the microplate reader) at a wavelength of 492 nm for each combination of bacterium/glycoside, and for each of their respective controls (i.e. which contained the particular bacterium but no glycosides). […] The experiment was carried out three times for each combination of bacterium with glycosides, with each repeat being carried out on a different day (thus providing three biological replicas). The controls were also carried out three times, as above. The values shown are the average (mean) of the three single values obtained (as detailed above) for each combination of bacterium with glycosides, at 24 hrs and at 48 hrs.

[1] = tested on: Aggregatibacter actinomycetemcomitans; assay: Phenotype microarray metabolic activity; conditions: control = 1
Procedure: as §1

Capnocytophaga sputigena = assay: Phenotype microarray metabolic activity; conditions: control = 1
Procedure: as §1

Porphyromonas gingivalis = assay: Phenotype microarray metabolic activity; conditions: control = 1
Procedure: as §1

Streptococcus gordonii = assay: Phenotype microarray metabolic activity; conditions: control = 1
Procedure: as §1

Streptococcus mitis = assay: Phenotype microarray metabolic activity; conditions: control = 1
Procedure: as §1

Streptococcus sanguinis = assay: Phenotype microarray metabolic activity; conditions: control = 1
Procedure: as §1

Streptococcus sobrinus = assay: Phenotype microarray metabolic activity; conditions: control = 1
Procedure: as §1

Tannerella forsythia = assay: Phenotype microarray metabolic activity; conditions: control = 1
Procedure: as §1

Veillonella parvula = assay: Phenotype microarray metabolic activity; conditions: control = 1
Procedure: as §1

[2] = tested on: beneficial oral bacteria and pathogenic oral bacteria; assay: Twenty-four hour biofilm growth, conclusion over the panel; conditions: threshold 1.6
Source text: Substrates that were able to increase the biofilm mass of at least one of the above beneficial bacteria while not or only minimally increasing the biofilm mass of the pathogenic bacteria are considered to be prebiotic compounds. The increase in biofilm formation of the tested bacteria in response to selected glycosides (β-methyl-D-galactoside and α-methyl-D-galactoside) was investigated by setting up biofilm growth assays in a nutritionally rich medium (brain heart infusion broth (BHI), Oxoid), over 24 hours. Late exponential growth phase liquid cultures were prepared by transferring the respective bacterium from blood agar plates to BHI and overnight incubation at 37° C. in an anaerobic atmosphere for A. viscosus, V. parvula, P. gingivalis, P. intermedia, T. forsythia, A. naeslundii, and C. sputigena, and in a 5% CO2 environment for S. salivarius, S. sanguinis, S. mitis, A. actinomycetemcomitans, S. mutans, and S. gordonii. […] Quantification of the stained biofilm was performed by measuring the absorbance at 630 nm using a Multiskan Ascent microplate reader (Thermo Scientific). […] For each day and for each combination, the average (mean) of the values obtained (as detailed above) for the four technical replicas was calculated to provide a single value for each combination on each day. […]

| Structure (SMILES) | OD 492 nm divided by control (metabolic activity) (Actinomyces naeslundii; 24 hrs) | OD 492 nm divided by control (metabolic activity) (Actinomyces naeslundii; 48 hrs) | OD 492 nm divided by control (metabolic activity) ([1]; 24 hrs) | OD 492 nm divided by control (metabolic activity) ([1]; 48 hrs) | OD 492 nm divided by control (metabolic activity) (Capnocytophaga sputigena; 24 hrs) | OD 492 nm divided by control (metabolic activity) (Capnocytophaga sputigena; 48 hrs) | OD 492 nm divided by control (metabolic activity) (Porphyromonas gingivalis; 24 hrs) | OD 492 nm divided by control (metabolic activity) (Porphyromonas gingivalis; 48 hrs) | OD 492 nm divided by control (metabolic activity) (Streptococcus gordonii; 24 hrs) | OD 492 nm divided by control (metabolic activity) (Streptococcus gordonii; 48 hrs) | OD 492 nm divided by control (metabolic activity) (Streptococcus mitis; 24 hrs) | OD 492 nm divided by control (metabolic activity) (Streptococcus mitis; 48 hrs) | OD 492 nm divided by control (metabolic activity) (Streptococcus sanguinis; 24 hrs) | OD 492 nm divided by control (metabolic activity) (Streptococcus sanguinis; 48 hrs) | OD 492 nm divided by control (metabolic activity) (Streptococcus sobrinus; 24 hrs) | OD 492 nm divided by control (metabolic activity) (Streptococcus sobrinus; 48 hrs) | OD 492 nm divided by control (metabolic activity) (Tannerella forsythia; 24 hrs) | OD 492 nm divided by control (metabolic activity) (Tannerella forsythia; 48 hrs) | OD 492 nm divided by control (metabolic activity) (Veillonella parvula; 24 hrs) | OD 492 nm divided by control (metabolic activity) (Veillonella parvula; 48 hrs) | also measured |
| --- | --- | --- | --- | --- | --- | --- | --- | --- | --- | --- | --- | --- | --- | --- | --- | --- | --- | --- | --- | --- | --- |
| CO[C@H]1O[C@H](CO)[C@H](O)[C@H](O)[C@H]1O [α-methyl-D-galactoside] | 2.1644 | 2.8156 | 0.8204 | 0.7697 | 0.5747 | 0.8435 | 0.8079 | 0.8180 | 0.8960 | 0.8401 | 1.3498 | 1.3555 | 1.0198 | 1.1007 | 1.0761 | 0.9730 | 1.0380 | 1.1302 | 0.9782 | 1.2054 | prebiotic effect (biofilm growth), in words ([2]; at concentrations of 5, 10, and 20 μmol/ml): exhibited prebiotic effects |
| CO[C@@H]1O[C@H](CO)[C@H](O)[C@H](O)[C@H]1O [β-methyl-D-galactoside] | 1.5393 | 1.9886 | 0.8310 | 0.7733 | 1.0421 | 1.0860 | 1.1297 | 1.8212 | 1.4834 | 1.8026 | 1.0977 | 0.9864 | 1.0434 | 1.0609 | 1.3078 | 1.3002 | 1.2183 | 1.8850 | 0.8103 | 0.6840 | prebiotic effect (biofilm growth), in words ([2]; at concentrations of 5, 10, 20 and 25 μmol/ml): exhibited prebiotic effects |
